Assay results taken from patent US12465050B2, “Compositions comprising a pyridine carboxylate herbicide and protoporphyrinogen oxidase (protox) inhibitor herbicides” (priority 2018, dated 2025).

How the values were obtained:
Format in all cases: in vivo
[1] = tested on: Hordeum vulgare (winter barley); experiment: Greenhouse postemergence phytotoxicity on crop HORVW; settings: Compound A 0, Oxyfluorfen 560 g/ha
Source text: (§1) Greenhouse Trial Methodology—Evaluation of Postemergence Herbicidal Effect
(§2) Seeds of the desired test plant species were planted in a 90:10% v/v (volume/volume) mixture of PRO-MIX® BX (Premier Tech Horticulture, Quakertown, Pa., USA) and PROFILE® GREENS GRADE™ (Profile Products LLC, Buffalo Grove, Ill., USA) planting mixture, which typically has a pH of 5.2 to 6.2 and an organic matter content of at least 50 percent, in plastic pots with a surface area of 103.2 square centimeters (cm^2). In some aspects or embodiments, to help ensure good germination and healthy plants, a fungicide treatment and/or other chemical or physical treatment was applied. The plants were grown for 7-36 days (d) in a greenhouse with an approximate 14-hour (h) photoperiod which was maintained at about 23° C. during the day and 22° C. during the night. Nutrients and water were added on a regular basis and supplemental lighting was provided with overhead metal halide 1000-Watt lamps as necessary. The plants were employed for testing when they reached the second or third true leaf stage.
(§3) Emulsifiable concentrates of each of each pyridine carboxylate herbicide (Compound A or Compound B) were prepared at 100 grams acid equivalent per liter (g ae/L). The emulsifiable concentrates also included a safener, cloquintocet mexyl, at 120 grams active ingredient per liter (g ai/L). An aliquot of each emulsifiable concentrate was placed in a 25 mL glass vial and diluted with an aqueous mixture of 1.25% (v/v) ACTIROB® B esterified rapeseed oil (Bayer Crop Science, Research Triangle Park, N.C., USA) or MSO® Concentrate with LECI-TECH® methylated soybean oil (Loveland Products, Loveland, Colo., USA) to obtain concentrated stock solutions at the highest application rate for each herbicide, based upon a 12 milliliter (mL) application volume at a rate of 187 liters per hectare (L/ha). The concentrated stock solutions were further diluted with an aqueous mixture of 1.25% v/v ACTIROB® B or MSO® Concentrate with LECI-TECH® to obtain stock solutions at reduced application rates for each herbicide. Spray solutions of the herbicide combinations (Compound A or Compound B plus PROTOX inhibitor herbicide) were prepared by adding weighed amounts or aliquots of the PROTOX inhibitor herbicides to the stock solutions of Compound A or Compound B to form 12-mL spray solutions in two-way combinations. […]
(§4) The treated plants and control plants were placed in a greenhouse as described above and watered by sub-irrigation to prevent wash-off of the test compounds. After 20-22 d, the condition of the test plants as compared with that of the control plants was determined visually and scored on a scale of 0 to 100 percent where 0 corresponds to no injury and 100 corresponds to complete kill.

[2] = tested on: Veronica persica (Persian speedwell); experiment: Greenhouse postemergence herbicidal effect on VERPE; settings: Compound A 0, Oxyfluorfen 560 g/ha
Source text: as §1, §2, §3, §4

[3] = tested on: Papaver rhoeas (common poppy); experiment: Greenhouse postemergence herbicidal effect on PAPRH; settings: Compound A 0, Oxyfluorfen 560 g/ha
Source text: as §1, §2, §3, §4

[4] = tested on: Viola arvensis (field violet); experiment: Greenhouse postemergence herbicidal effect on VIOAR; settings: Compound A 0, Oxyfluorfen 560 g/ha
Source text: as §1, §2, §3, §4

[5] = tested on: Lamium purpureum (purple deadnettle); experiment: Greenhouse postemergence herbicidal effect on LAMPU; settings: Compound A 0, Oxyfluorfen 560 g/ha
Source text: as §1, §2, §3, §4

[6] = tested on: Matricaria chamomilla (wild chamomile); experiment: Greenhouse postemergence herbicidal effect on MATCH; settings: Compound A 0, Oxyfluorfen 560 g/ha
Source text: as §1, §2
(§5) Emulsifiable concentrates of each of each pyridine carboxylate herbicide (Compound A or Compound B) were prepared at 100 grams acid equivalent per liter (g ae/L). The emulsifiable concentrates also included a safener, cloquintocet mexyl, at 120 grams active ingredient per liter (g ai/L). An aliquot of each emulsifiable concentrate was placed in a 25 mL glass vial and diluted with an aqueous mixture of 1.25% (v/v) ACTIROB® B esterified rapeseed oil (Bayer Crop Science, Research Triangle Park, N.C., USA) or MSO® Concentrate with LECI-TECH® methylated soybean oil (Loveland Products, Loveland, Colo., USA) to obtain concentrated stock solutions at the highest application rate for each herbicide, based upon a 12 milliliter (mL) application volume at a rate of 187 liters per hectare (L/ha). The concentrated stock solutions were further diluted with an aqueous mixture of 1.25% v/v ACTIROB® B or MSO® Concentrate with LECI-TECH® to obtain stock solutions at reduced application rates for each herbicide. Spray solutions of the herbicide combinations (Compound A or Compound B plus PROTOX inhibitor herbicide) were prepared by adding weighed amounts or aliquots of the PROTOX inhibitor herbicides to the stock solutions of Compound A or Compound B to form 12-mL spray solutions in two-way combinations.
(§6) The spray solutions were applied to the plant material with an overhead Mandel track sprayer equipped with 8002E nozzles calibrated to deliver 187 L/ha over an application area of 0.503 square meters (m^2) at a spray height of 18 inches (43 centimeters (cm)) above the average plant canopy. Control plants were sprayed in the same manner with the solvent blank. All pyridine carboxylate herbicide (component a) application rates are given as “g ae/ha” and all PROTOX inhibitor herbicide (component b) application rates are given as “g ai/ha.”
as §4

[7] = tested on: Stellaria media (chickweed); experiment: Greenhouse postemergence herbicidal effect on STEME; settings: Compound A 0, Oxyfluorfen 560 g/ha
Source text: as §1, §2, §3, §4

[8] = tested on: Matricaria discoidea (pineapple weed); experiment: Greenhouse postemergence herbicidal effect on MATMT; settings: Compound A 0, Oxyfluorfen 560 g/ha
Source text: as §1, §2, §3, §4

[9] = tested on: Anthemis arvensis (corn chamomile); experiment: Greenhouse postemergence herbicidal effect on ANTAR; settings: Compound A 0, Oxyfluorfen 560 g/ha
Source text: as §1, §2, §3, §4

[10] = tested on: Triticum aestivum (winter wheat); experiment: Greenhouse postemergence phytotoxicity on crop TRZAW; settings: Compound A 0, Oxyfluorfen 560 g/ha
Source text: as §1, §2, §3, §4

[11] = tested on: Papaver rhoeas (herbicide-resistant poppy); experiment: Greenhouse postemergence herbicidal effect on PAPRH-RES; settings: Compound A 0, Oxyfluorfen 560 g/ha
Source text: as §1, §2, §3, §4

[12] = tested on: Hordeum vulgare (spring barley); experiment: Greenhouse postemergence phytotoxicity on crop HORVS
Source text: as §1, §2, §5, §6, §4

[13] = tested on: Polygonum convolvulus (wild buckwheat); experiment: Greenhouse postemergence herbicidal effect on POLCO
Source text: as §1, §2, §5, §6, §4

[14] = tested on: Matricaria inodora (scentless chamomile); experiment: Greenhouse postemergence herbicidal effect on MATIN; settings: Compound A 0, Oxyfluorfen 560 g/ha
Source text: as §1, §2, §3, §4

[15] = tested on: Sinapis arvensis (wild mustard); experiment: Greenhouse postemergence herbicidal effect on SINAR; settings: Compound A 0, Oxyfluorfen 560 g/ha
Source text: as §1, §2, §5, §6, §4

[16] = tested on: Triticum aestivum (spring wheat); experiment: Greenhouse postemergence phytotoxicity on crop TRZAS
Source text: as §1, §2, §5, §6, §4

[17] = tested on: Cirsium arvense (Canadian thistle); experiment: Greenhouse postemergence herbicidal effect on CIRAR
Source text: as §1, §2, §5, §6, §4

[18] = tested on: Capsella bursa-pastoris (shepherd's purse); experiment: Greenhouse postemergence herbicidal effect on CAPBP; settings: Compound A 0, Oxyfluorfen 560 g/ha
Source text: as §1, §2, §3, §4

[19] = tested on: Cyanus segetum (cornflower); experiment: Greenhouse postemergence herbicidal effect on CENCY; settings: Compound A 0, Oxyfluorfen 560 g/ha
Source text: as §1, §2, §3, §4

[20] = tested on: Brassica napus (winter rape); experiment: Greenhouse postemergence herbicidal effect on BRSNW; settings: Compound A 0, Oxyfluorfen 560 g/ha
Source text: as §1, §2, §5, §6, §4

[21] = tested on: Veronica hederifolia (ivy-leaved speedwell); experiment: Greenhouse postemergence herbicidal effect on VERHE; settings: Compound A 0, Oxyfluorfen 560 g/ha
Source text: as §1, §2, §3, §4

[22] = tested on: Viola tricolor (wild pansy); experiment: Greenhouse postemergence herbicidal effect on VIOTR
Source text: as §1, §2, §5, §6, §4

[23] = tested on: Salsola kali (Russian thistle); experiment: Greenhouse postemergence herbicidal effect on SASKR
Source text: as §1, §2, §5, §6, §4

Kochia scoparia (kochia) = experiment: Greenhouse postemergence herbicidal effect on KCHSC
Source text: as §1, §2, §5, §6, §4

[24] = tested on: Rumex obtusifolius (broad-leaf dock); experiment: Greenhouse postemergence herbicidal effect on RUMOB; settings: Compound A 0, Bifenox 90 g/ha
Source text: as §1, §2, §5, §6, §4

[25] = tested on: Digitaria sanguinalis (large crabgrass); experiment: Greenhouse postemergence herbicidal effect on DIGSA; settings: Compound A 0, Bifenox 90 g/ha
Source text: as §1, §2
(§7) Emulsifiable concentrates of each of each pyridine carboxylate herbicide (Compound A or Compound B) were prepared at 100 grams acid equivalent per liter (g ae/L). The emulsifiable concentrates also included a safener, cloquintocet mexyl, at 120 grams active ingredient per liter (g ai/L). […]
as §4

[26] = tested on: Brassica napus (spring rape); experiment: Greenhouse postemergence herbicidal effect on BRSNN; settings: Compound A 0, Bifenox 90 g/ha
Source text: as §1, §2, §5, §6, §4

[27] = tested on: Echinochloa crus-galli (barnyard grass); experiment: Greenhouse postemergence herbicidal effect on ECHCG; settings: Compound A 0, Bifenox 90 g/ha
Source text: as §1, §2, §7, §4

[28] = tested on: Setaria faberi (giant foxtail); experiment: Greenhouse postemergence herbicidal effect on SETFA; settings: Compound A 0, Bifenox 90 g/ha
Source text: as §1, §2, §5, §6, §4

Avena fatua (wild oat) = experiment: Greenhouse postemergence herbicidal effect on AVEFA; settings: Compound A 0, Bifenox 90 g/ha
Source text: as §1, §2, §7, §4

[29] = Compound A 0, Oxyfluorfen 560 g/ha
[30] = Compound A 0, Carfentrazone-ethyl 5 g/ha

## CCOc1cc(Oc2ccc(C(F)(F)F)cc2Cl)ccc1[N+](=O)[O-] [Oxyfluorfen, 2-chloro-1-(3-ethoxy-4-nitrophenoxy)-4-(trifluoromethyl)benzene, reference compound]
[1]
  % visual injury, Obs: 50%
[2]
  % visual injury, Obs: 20%
[3]
  % visual injury, Obs: 70%
[4]
  % visual injury, Obs: 40%
[5]
  % visual injury, Obs: 10%
[6]
  % visual injury, Obs: 25%
[7]
  % visual injury, Obs: 0%
[8]
  % visual injury, Obs: 5%
[9]
  % visual injury, Obs: 5%
[10]
  % visual injury, Obs: 20%
[11]
  % visual injury, Obs: 45%
[12]; [29]
  % visual injury, Obs: 70%
[13]; [29]
  % visual injury, Obs: 80%
[14]
  % visual injury, Obs: 0%
[15]
  % visual injury, Obs: 20%
[16]; [29]
  % visual injury, Obs: 23%
[17]; [29]
  % visual injury, Obs: 35%
[18]
  % visual injury, Obs: 0%
[19]
  % visual injury, Obs: 15%
[20]
  % visual injury, Obs: 20%
[21]
  % visual injury, Obs: 5%
[22]; [29]
  % visual injury, Obs: 60%
[23]; [29]
  % visual injury, Obs: 60%
Kochia scoparia (kochia); [29]
  % visual injury, Obs: 55%

## CCOC(=O)C(Cl)Cc1cc(-n2nc(C)n(C(F)F)c2=O)c(F)cc1Cl (stereo not drawn) [Carfentrazone-ethyl, ethyl α,2-dichloro-5-[4-(difluoromethyl)-4,5-dihydro-3-methyl-5-oxo-1H-1,2,4-triazol-1-yl]-4-fluorobenzenepropanoate, reference compound]
[12]; [30]
  % visual injury, Obs: 8%
[13]; [30]
  % visual injury, Obs: 5%
[16]; [30]
  % visual injury, Obs: 0%
[23]; [30]
  % visual injury, Obs: 68%
Kochia scoparia (kochia); [30]
  % visual injury, Obs: 20%

## COC(=O)c1cc(Oc2ccc(Cl)cc2Cl)ccc1[N+](=O)[O-] [Bifenox, methyl 5-(2,4-dichlorophenoxy)-2-nitrobenzoate, reference compound]
[24]
  % visual injury, Obs: 0%
[25]
  % visual injury, Obs: 25%
[26]
  % visual injury, Obs: 23%
[27]
  % visual injury, Obs: 15%
[17]; Compound A 0, Bifenox 90 g/ha
  % visual injury, Obs: 18%
[28]
  % visual injury, Obs: 18%
Avena fatua (wild oat)
  % visual injury, Obs: 5%
[22]; Compound A 0, Bifenox 90 g/ha
  % visual injury, Obs: 0%
Kochia scoparia (kochia); Compound A 0, Bifenox 90 g/ha
  % visual injury, Obs: 73%
